# In US10793564B2, “Amino acid compounds and methods of use” (Pliant Therapeutics, Inc., priority 2018, dated 2020):
# Target: recombinant human integrin αVβ6 (Homo sapiens (Human), UniProt P06756+P18564)
# Assay: Solid phase integrin αVβ6 binding assay
# Conditions: inhibition of recombinant TGFβ1 LAP binding to coated integrin, IC50 presented in four ranges, read-out: αvβ6 Inhibition IC50 (nM) - range
# Method: (§1) Microplates were coated with recombinant human integrin αVβ6 (2 μg/mL) in PBS (100 μL/well 25° C., overnight). The coating solution was removed, washed with wash buffer (0.05% Tween 20; 0.5 mM MnCl2; in 1×TBS). The plate was blocked with 200 μL/well of Block Buffer (1% BSA; 5% sucrose; 0.5 mM MnCl2; in 1×TBS) at 37° C. for 2 h. Dilutions of testing compounds and recombinant TGFβ1 LAP (0.67 μg/mL) in binding buffer (0.05% BSA; 2.5% sucrose; 0.5 mM MnCl2; in 1×TBS) were added. The plate was incubated for 2 hours at 25° C., washed, and incubated for 1 hour with Biotin-Anti-hLAP. Bound antibody was detected by peroxidase-conjugated streptavidin. The IC50 values for testing compounds were calculated by a four-parameter logistic regression.
# The compounds tested were compound samples prepared according to procedures described in the Synthetic Examples section, with the stereochemical purity as indicated in the Examples.
# as §1, with “A third series of exemplary compounds was selected for testing in the solid phase integrin αVβ6 binding assay. The compounds tested were compound samples prepared according to procedures described in the Synthetic Examples section, with the stereochemical purity as indicated in the Examples. As in Example B1, microplates were” for “Microplates were”, “(0.67 g/mL)” for “(0.67 μg/mL)”
# recombinant human integrin αVβ6, sequence (P06756 31-992): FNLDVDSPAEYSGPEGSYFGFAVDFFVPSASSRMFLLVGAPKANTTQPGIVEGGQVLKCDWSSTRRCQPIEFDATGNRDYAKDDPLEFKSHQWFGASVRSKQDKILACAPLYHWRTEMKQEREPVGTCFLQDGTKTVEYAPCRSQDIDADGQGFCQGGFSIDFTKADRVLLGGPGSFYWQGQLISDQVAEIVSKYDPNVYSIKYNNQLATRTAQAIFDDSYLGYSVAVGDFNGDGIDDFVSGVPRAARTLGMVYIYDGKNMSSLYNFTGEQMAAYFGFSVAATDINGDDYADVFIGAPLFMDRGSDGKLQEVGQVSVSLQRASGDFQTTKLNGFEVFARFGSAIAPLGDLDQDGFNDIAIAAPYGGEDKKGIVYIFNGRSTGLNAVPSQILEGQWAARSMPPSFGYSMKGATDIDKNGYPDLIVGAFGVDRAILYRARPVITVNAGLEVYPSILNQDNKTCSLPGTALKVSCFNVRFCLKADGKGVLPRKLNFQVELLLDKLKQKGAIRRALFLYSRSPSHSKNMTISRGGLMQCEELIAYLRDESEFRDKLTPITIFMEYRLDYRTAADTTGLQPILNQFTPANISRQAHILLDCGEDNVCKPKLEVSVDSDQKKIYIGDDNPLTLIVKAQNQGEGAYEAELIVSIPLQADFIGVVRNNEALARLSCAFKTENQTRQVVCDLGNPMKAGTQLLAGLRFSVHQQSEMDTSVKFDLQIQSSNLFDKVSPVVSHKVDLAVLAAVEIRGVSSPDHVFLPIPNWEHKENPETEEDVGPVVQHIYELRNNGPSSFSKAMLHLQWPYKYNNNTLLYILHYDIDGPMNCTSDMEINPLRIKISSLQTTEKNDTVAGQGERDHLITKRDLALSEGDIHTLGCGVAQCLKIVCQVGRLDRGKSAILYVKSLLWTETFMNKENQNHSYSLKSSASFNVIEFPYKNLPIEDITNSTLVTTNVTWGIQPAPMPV
# recombinant human integrin αVβ6, sequence (P18564 22-707): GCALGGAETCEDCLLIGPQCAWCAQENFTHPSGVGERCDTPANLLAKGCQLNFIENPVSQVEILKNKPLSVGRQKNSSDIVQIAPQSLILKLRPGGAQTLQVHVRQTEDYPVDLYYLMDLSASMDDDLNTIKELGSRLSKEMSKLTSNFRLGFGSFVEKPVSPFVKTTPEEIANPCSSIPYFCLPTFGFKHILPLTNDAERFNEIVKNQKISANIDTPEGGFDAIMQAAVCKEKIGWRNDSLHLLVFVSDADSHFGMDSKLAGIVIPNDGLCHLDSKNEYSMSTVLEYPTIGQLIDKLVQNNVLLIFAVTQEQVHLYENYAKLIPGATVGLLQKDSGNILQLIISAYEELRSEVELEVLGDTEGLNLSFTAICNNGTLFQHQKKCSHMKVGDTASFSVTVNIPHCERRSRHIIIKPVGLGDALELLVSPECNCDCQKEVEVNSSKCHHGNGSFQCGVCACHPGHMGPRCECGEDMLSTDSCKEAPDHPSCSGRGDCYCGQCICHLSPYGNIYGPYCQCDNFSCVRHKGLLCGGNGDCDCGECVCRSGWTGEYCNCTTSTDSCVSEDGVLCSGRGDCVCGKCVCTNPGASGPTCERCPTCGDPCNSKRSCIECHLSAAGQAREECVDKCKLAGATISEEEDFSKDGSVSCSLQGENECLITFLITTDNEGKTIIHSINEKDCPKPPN
row,Compound,IC50 [nM]
1,"O=C(O)[C@H](CCN(CCCCc1ccc2c(n1)NCCC2)CC(F)F)Nc1ncnc2ccccc12 [Compound 8, (S)-4-((2,2-difluoroethyl) (4-(5,6,7,8-tetrahydro-1,8-naphthyridin-2-yl)butyl)amino)-2-(quinazolin-4-ylamino) butanoic Acid]",50 to 250
2,"COC[C@@H](F)CN(CCCCc1ccc2c(n1)NCCC2)CC[C@H](Nc1ncc(C(F)(F)F)cn1)C(=O)O [Compound 85, (S)-4-(((S)-2-fluoro-3-methoxypropyl) (4-(5,6,7,8-tetrahydro-1,8-naphthyridin-2-yl)butyl)amino)-2-((5-(trifluoromethyl)pyrimidin-2-yl)amino) butanoic Acid]",250 to 1000
3,"CS(=O)(=O)CCN(CCCCc1ccc2c(n1)NCCC2)CC[C@H](Nc1ncnc2[nH]ncc12)C(=O)O [Compound 125, (S)-2-((1H-pyrazolo[3,4-d]pyrimidin-4-yl)amino)-4-((2-(methylsulfonyl)ethyl) (4-(5,6,7,8-tetrahydro-1,8-naphthyridin-2-yl)butyl)amino) butanoic Acid]",50 to 250
4,"O=C(O)[C@H](CCN(CCCCc1ccc2c(n1)NCCC2)CCOc1ccc(F)cc1)Nc1ncnc2[nH]ncc12 [Compound 143, (S)-2-((1H-pyrazolo[3,4-d]pyrimidin-4-yl)amino)-4-((2-(4-fluorophenoxy)ethyl) (4-(5,6,7,8-tetrahydro-1,8-naphthyridin-2-yl)butyl)amino) butanoic Acid]",50 to 250
5,"O=C(O)[C@H](CCN(CCCCc1ccc2c(n1)NCCC2)CC(F)F)Nc1cc(-c2ccccc2)ncn1 [Compound 142, (S)-4-((2,2-difluoroethyl) (4-(5,6,7,8-tetrahydro-1,8-naphthyridin-2-yl)butyl)amino)-2-((6-phenylpyrimidin-4-yl)amino) butanoic Acid]",> 1000
6,"O=C(O)[C@H](CCN(CCCCc1ccc2c(n1)NCCC2)CCC(F)F)Nc1ncnc2ccccc12 [Compound 29, (S)-4-((3,3-difluoropropyl) (4-(5,6,7,8-tetrahydro-1,8-naphthyridin-2-yl)butyl)amino)-2-(quinazolin-4-ylamino) butanoic Acid]",< 50
7,"CO[C@H](C)CN(CCCCc1ccc2c(n1)NCCC2)CC[C@H](Nc1nc(C)nc2ccccc12)C(=O)O [Compound 66, (S)-4-(((R)-2-methoxypropyl) (4-(5,6,7,8-tetrahydro-1,8-naphthyridin-2-yl)butyl)amino)-2-((2-methylquinazolin-4-yl)amino) butanoic Acid]",< 50
8,"Cc1nc(N[C@@H](CCN(CCCCc2ccc3c(n2)NCCC3)CCOc2cncc(F)c2)C(=O)O)c2ccc(F)cc2n1 [Compound 61, (S)-2-((7-fluoro-2-methylquinazolin-4-yl)amino)-4-((2-((5-fluoropyridin-3-yl)oxy)ethyl) (4-(5,6,7,8-tetrahydro-1,8-naphthyridin-2-yl)butyl)amino) butanoic Acid]",< 50
9,"CN(C)C(=O)CN(CCCCc1ccc2c(n1)NCCC2)CC[C@H](Nc1ncnc2c1cnn2C)C(=O)O [Compound 140, (S)-4-((2-(dimethylamino)-2-oxoethyl) (4-(5,6,7,8-tetrahydro-1,8-naphthyridin-2-yl)butyl)amino)-2-((1-methyl-1H-pyrazolo[3,4-d]pyrimidin-4-yl)amino) butanoic Acid]",< 50
10,"O=C(O)[C@H](CCN(CCCCc1ccc2c(n1)NCCC2)C1CC1)Nc1cc(C(F)F)ncn1 [Compound 1, (S)-4-(cyclopropyl(4-(5,6,7,8-tetrahydro-1,8-naphthyridin-2-yl)butyl)amino)-2-((6-(difluoromethyl)pyrimidin-4-yl)amino) butanoic Acid]",250 to 1000
11,"COC[C@@H](F)CN(CCCCc1ccc2c(n1)NCCC2)CC[C@H](Nc1ncncc1-c1ccccc1)C(=O)O [Compound 110, (S)-4-(((S)-2-fluoro-3-methoxypropyl) (4-(5,6,7,8-tetrahydro-1,8-naphthyridin-2-yl)butyl)amino)-2-((5-phenylpyrimidin-4-yl)amino) butanoic Acid]",< 50
12,"O=C(O)[C@H](CCN(CCCCc1ccc2c(n1)NCCC2)CCOc1ccccc1)Nc1cc(-c2ccccc2)ncn1 [Compound 93, (S)-4-((2-phenoxyethyl) (4-(5,6,7,8-tetrahydro-1,8-naphthyridin-2-yl)butyl)amino)-2-((6-phenylpyrimidin-4-yl)amino) butanoic Acid]",< 50
13,"CO[C@H](C)CN(CCCCc1ccc2c(n1)NCCC2)CC[C@H](Nc1ncc(C#N)cn1)C(=O)O [Compound 68, (S)-2-((5-cyanopyrimidin-2-yl)amino)-4-(((R)-2-methoxypropyl) (4-(5,6,7,8-tetrahydro-1,8-naphthyridin-2-yl)butyl)amino) butanoic Acid]",< 50

# Results, then the compound that gave them:
row,IC50 [nM],Compound
1,< 50,"CO[C@H](C)CN(CCCCc1ccc2c(n1)NCCC2)CC[C@H](Nc1ncnc2[nH]ncc12)C(=O)O [Compound 71, (S)-2-((1H-pyrazolo[3,4-d]pyrimidin-4-yl)amino)-4-(((R)-2-methoxypropyl) (4-(5,6,7,8-tetrahydro-1,8-naphthyridin-2-yl)butyl)amino) butanoic Acid]"
2,< 50,"CO[C@H](C)CN(CCCCc1ccc2c(n1)NCCC2)CC[C@H](Nc1nc(-c2cccnc2)nc2ccccc12)C(=O)O [Compound 100, (S)-4-(((R)-2-methoxypropyl) (4-(5,6,7,8-tetrahydro-1,8-naphthyridin-2-yl)butyl)amino)-2-((2-(pyridin-3-yl)quinazolin-4-yl)amino) butanoic Acid]"
3,< 50,"Cc1ccc(OCCN(CCCCc2ccc3c(n2)NCCC3)CC[C@H](Nc2nc(C)nc3cc(F)ccc23)C(=O)O)cn1 [Compound 56, (S)-2-((7-fluoro-2-methylquinazolin-4-yl)amino)-4-((2-((6-methylpyridin-3-yl)oxy)ethyl) (4-(5,6,7,8-tetrahydro-1,8-naphthyridin-2-yl)butyl)amino) butanoic Acid]"
4,< 50,"O=C(O)[C@H](CCN(CCCCc1ccc2c(n1)NCCC2)CCOc1ccccc1)Nc1ccnc(C(F)(F)F)n1 [Compound 92, (S)-4-((2-phenoxyethyl) (4-(5,6,7,8-tetrahydro-1,8-naphthyridin-2-yl)butyl)amino)-2-((2-(trifluoromethyl)pyrimidin-4-yl)amino) butanoic Acid]"
5,< 50,"CO[C@H](C)CN(CCCCc1ccc2c(n1)NCCC2)CC[C@H](Nc1ncc(C2CC2)cn1)C(=O)O [Compound 124, (S)-2-((5-cyclopropylpyrimidin-2-yl)amino)-4-(((R)-2-methoxypropyl) (4-(5,6,7,8-tetrahydro-1,8-naphthyridin-2-yl)butyl)amino) butanoic Acid]"
6,< 50,"O=C(O)[C@H](CCN(CCCCc1ccc2c(n1)NCCC2)CC1CCO1)Nc1ncnc2ccccc12 (stereo partly drawn) [Compound 129, (2S)-4-((oxetan-2-ylmethyl) (4-(5,6,7,8-tetrahydro-1,8-naphthyridin-2-yl)butyl)amino)-2-(quinazolin-4-ylamino) butanoic Acid]"
7,< 50,"CO[C@H](C)CN(CCCCc1ccc2c(n1)NCCC2)CC[C@H](Nc1nccnc1C#N)C(=O)O [Compound 76, (S)-2-((3-cyanopyrazin-2-yl)amino)-4-(((R)-2-methoxypropyl) (4-(5,6,7,8-tetrahydro-1,8-naphthyridin-2-yl)butyl)amino) butanoic Acid]"
8,< 50,"COCCN(CCCCc1ccc2c(n1)NCCC2)CC[C@H](Nc1ncnc2cnccc12)C(=O)O [Compound 17, (S)-4-((2-methoxyethyl) (4-(5,6,7,8-tetrahydro-1,8-naphthyridin-2-yl)butyl)amino)-2-(pyrido[3,4-d]pyrimidin-4-ylamino) butanoic Acid]"
9,< 50,"CO[C@H](C)CN(CCCCc1ccc2c(n1)NCCC2)CC[C@H](Nc1ccncn1)C(=O)O [Compound 106, (S)-4-(((R)-2-methoxypropyl) (4-(5,6,7,8-tetrahydro-1,8-naphthyridin-2-yl)butyl)amino)-2-(pyrimidin-4-ylamino) butanoic Acid]"
10,< 50,"O=C(O)[C@H](CCN(CCCCc1ccc2c(n1)NCCC2)CCOc1ccccc1)Nc1ncnc2ccccc12 [Compound 28, (S)-4-((2-phenoxyethyl) (4-(5,6,7,8-tetrahydro-1,8-naphthyridin-2-yl)butyl)amino)-2-(quinazolin-4-ylamino) butanoic Acid]"
11,< 50,"CS(=O)(=O)CCN(CCCCc1ccc2c(n1)NCCC2)CC[C@H](Nc1ncnc2ccccc12)C(=O)O [Compound 27, (S)-4-((2-(methylsulfonyl)ethyl) (4-(5,6,7,8-tetrahydro-1,8-naphthyridin-2-yl)butyl)amino)-2-(quinazolin-4-ylamino) butanoic Acid]"
